Experimental data as given in patent US4645774A, “Aminoethoxybenzylalcohol derivatives, process for their preparation and pharmaceutical compositions containing them” (Richter Gedeon Vegyeszeti Gyar Rt, priority 1982, dated 1987).

Assays:
hexobarbital oxidase = assay: in vivo measurement of hexobarbital oxidase activity (hexobarbital narcosis period); parameters: species or system rat (female Hann.-Wistar); details: 40 mg./kg. oral single dose, n=10, mean ± S.E.; for Narcosis period in % of the control, 1 hour: hexobarbital sodium 60 mg./kg. i.v. 1 hour after; for Narcosis period in % of the control, 24 hours: hexobarbital sodium 60 mg./kg. i.v. 24 hours after
Description: The enzyme-inducing potency of the new compounds according to the invention was determined by several methods. One of these methods was the in vivo measurement of hexobarbital oxidase activity.
To determine the change of hexobarbital oxidase activity female Hann.-Wistar rats, each weighing 50 to 60 g. were treated orally with a single 40 mg./kg. dose of the active agent. One and 24 hours after the administration of the active agent, respectively, the animals were narcotized with a 60 mg./kg. i.v. dose of hexobarbital sodium, and the time elapsed until complete wakening from ceasing of the righting reflex was measured (Noordhoex J.: Eur. J. Pharmacol, 3, 242, 1968). As a reference compound phenobarbital was used. The data were recorded, and the mean values, the standard errors, as well as the percentage increase with respect to the control were calculated for each group. Abbreviations:
S.E.=standard error of the mean value,
The control group was treated with a placebo. [formula] A=α-ethyl-α-(3-trifluoromethylphenyl)-4-[2-(piperidin-l-yl)-eth oxy]-benzylalcohol;

acute toxicity = assay: acute toxicity; parameters: species or system rat (H-Wistar, both sexes); details: rat, in vivo, po; for mortality at 336 h: 500 mg./kg. p.o. single dose, 14 days observation, n=10, read-out: Perished animals
Description: The acute toxicity of the compounds of the formula (I) was determined on H-Wistar rats of both sexes, each weighing 160 to 180 g. The compounds were administered in a single 500 mg./kg. dose, orally.

[1] = tested on: NADPH: ferricytochrome C (P-450) reductase (E.C. 1.6.2.4); assay: activity of NADPH: ferricytochrome C (P-450) reductase; assay type: in vivo, rat (female H. Wistar); details: 40 mg./kg. single oral dose, 24 hours; control 4686 ± 286.2; ± S.E.
Description: (§1) The enzyme inducing activity of the compounds of the formula (I) was further tested by determining the activity of the polysubstrate monooxygenase enzyme system of the liver after treatment with a placebo and the compounds according to the invention, respectively. Female H. Wistar rats each weighing 50 to 60 g. were administered a single 40 mg./kg. dose of the test compounds, orally. 24 hours after treatment the animals were decapitated and the livers were eliminated. […] The cytochrome P-450 concentration was determined from the carbon monoxide differential spectrum of a reduced microsomal suspension (Omura T. et al.: J. Biol. Chem. 239, 2370 (1964)), the quantity of cytochrome b-5 was determined from a NADH differential spectrum (Raw J. et al.: J. Biol. Chem. 234, 1867 (1959)). The activity of NADPH: ferricytochrome C (P-450) reductase (E.C. 1.6.2.4) was measured according to Williams C. […] The activity of aniline hydroxylase was determined according to Chhabra R. S. et al.: Toxicol. […] Pharmacol., 22, 50 (1972) by measuring the velocity of p-aminophenol formation, while the […] activity was determined on the basis of the quantity of formaldehyde formed, following the method of Gourlay G. K. et al.: Biochem. Pharmacol., 27, 965 (1978). […]

liver = assay: Relative weight of liver after treatment; assay type: in vivo, rat (female H. Wistar); details: 40 mg./kg. single oral dose, 24 hours; control 4.3 ± 0.17; ± S.E.
Description: as §1

Microsomal protein = Microsomal protein of the liver after treatment; assay type: in vivo, rat (female H. Wistar); details: 40 mg./kg. single oral dose, 24 hours; control 29.3 ± 1.01; ± S.E.
Description: as §1

Cytochrome b-5 = Cytochrome b-5 quantity from NADH differential spectrum; assay type: in vivo, rat (female H. Wistar); details: 40 mg./kg. single oral dose, 24 hours; control 8.6 ± 0.43; ± S.E.
Description: as §1

Cytochrome P-450 = Cytochrome P-450 concentration from carbon monoxide differential spectrum; assay type: in vivo, rat (female H. Wistar); details: 40 mg./kg. single oral dose, 24 hours; control 12.8 ± 0.63; ± S.E.
Description: as §1

aniline hydroxylase = assay: activity of aniline hydroxylase (p-aminophenol formation); assay type: in vivo, rat (female H. Wistar); details: 40 mg./kg. single oral dose, 24 hours; control 20.3 ± 0.88; ± S.E.
Description: as §1

[2] = tested on: aminopyridine demethylase; assay: aminopyridine demethylase activity (formaldehyde formed); assay type: in vivo, rat (female H. Wistar); details: 40 mg./kg. single oral dose, 24 hours; control 254.8 ± 7.47; ± S.E.
Description: as §1

mice and rats = assay type: in vivo; details: orally, even in a dose of 40 mg./kg.
Excerpt: The central nervous activities of the compounds according to the invention were examined on mice and rats with the following methods: electroshock (Swinyard, E. A., Brown, W. C., Goodman, L. S.: J. Pharmacol. Exp. Ther. 106, 319 (1952)), metrazole spasm (Everett, G. M., Richards, R. K.: J. Pharmacol. Exp. Ther. 81, 402 (1944)), thiosemicarbazide spasm ( Da Venzo, J. P., Greig, M. E., Cormin, M. A.: Amer. J. Physiol. 201, 833 (1961)), strychnine spasm (Kerley, T. L., Richards, A. G., Begley, R. W., Abreu, B. B., Wesver, L. C.: J. Pharmacol. Exp. Ther. 132, 360 (1961)), nicotine spasm (Stone, C. A., Mecklenburg, K. L., Torhans, M. L.: Arch. Int. Pharmacodyn. 117, 419 (1958)), rotarod test (Kinnard, W. C., Carr, C. J.: J. Pharmacol. Expt. Ther. 121, 354 (1957)), physostigmine lethality preventing effect (Nose, T., Kojima, M.: Europ. J. Pharmacol. 10, 83 (1970)), yohimbine potentiation effect (Quinton, R. M.: Brit. J. Pharmacol. 21, 51 (1963)), and analgesic activity (Bianchi, G., Francheschini, J.: Brit. J. Pharm. Chemother. 9, 280 (1954)).
As a reference substance, phenobarbital was used. […].

| SMILES | Narcosis period in % of the control, 1 hour (hexobarbital oxidase) | Narcosis period in % of the control, 24 hours (hexobarbital oxidase) | mortality at 336 h (acute toxicity) | c(P-450)reductase (nmoles/g. of liver/min.), % of control [1] | Relative weight of liver (g./100 g. of body weight), % of control (liver) | Microsomal protein (mg./g. of liver), % of control (Microsomal protein) | Cytochrome b-5 (nmoles/g. of liver), % of control (Cytochrome b-5) | Cytochrome P-450 (nmoles/g. of liver), % of control (Cytochrome P-450) | Aniline hydroxylase (nmoles/g. of liver/min.), % of control (aniline hydroxylase) | Aminopyridine demethylase (nmoles/g./min.), % of control [2] | central nervous activities (mice and rats) | LD50 (acute toxicity; footnote x of Table 3) |
| --- | --- | --- | --- | --- | --- | --- | --- | --- | --- | --- | --- | --- |
| CCC(O)(c1ccc(OCCN2CCCCC2)cc1)c1cccc(C(F)(F)F)c1 (stereo not drawn) [A, α-Ethyl-α-(3-trifluoromethylphenyl)-4-[2-(piperidin-1-yl)-ethoxy]-benzylalcohol] | 177 ± 5.0% | 49 ± 0.7% | 0% |  |  |  |  |  |  |  |  |  |
| CCC(O)(c1ccc(OCCN(C)C)cc1)c1cccc(C(F)(F)F)c1 (stereo not drawn) [B, α-ethyl-α-(3-trifluoromethylphenyl)-4-[2-(dimethylamino)-ethoxy]-benzylalcohol] | 180 ± 10.0% | 49 ± 3.3% | 0% |  |  |  |  |  |  |  |  |  |
| CCC(O)(c1ccc(OCCN2CCCC2)cc1)c1ccccc1OC (stereo not drawn) [C, α-Ethyl-α-(2-methoxyphenyl)-4-[2-(pyrrolidin-1-yl)-ethoxy]-benzylalcohol] | 113 ± 12.0% | 57 ± 7.8% | 0% |  |  |  |  |  |  |  |  |  |
| CCC(O)(c1ccc(F)cc1)c1ccc(OCCN2CCCCC2)cc1 (stereo not drawn) [D, α-Ethyl-α-(4-fluorophenyl)-4-[2-(piperidin-1-yl)-ethoxy]-benzylalcohol] | 120 ± 4.2% | 53 ± 3.7% | 0% | 178 ± 16.2% | 122 ± 4.9% | 111 ± 4.2% | 116 ± 4.8% | 163 ± 8.7% | 131 ± 5.9% | 123 ± 7.8% |  |  |
| CCC1(c2ccccc2)C(=O)NC(=O)NC1=O [phenobarbital, reference compound] | 250 ± 15.8% | 60 ± 7.3% |  |  |  |  |  |  |  |  | strong anticonvulsive muscle-coordinating and sedative effects | 245 mg/kg |
